The source of these data is patent publication US20240262844A1, “PYRIDINIUM SALTS AND METHODS OF USE” (UNIVERSITY OF WYOMING, priority 2023, published 2024).

“And” between values parts separate entries of the source, which are not always exact repeats. Equal entries are not always repeated. Structures can show the parent of a compound that is named as a salt.

Assay [1] deals with Octreotide acetate (1 kDa). Kind of assay: Photochemical labeling of octreotide (LC/MS). It is filed as biochemical. The note with it: 10 μM octreotide acetate, 100 μM pyridinium salt, 30 minutes. How it is done: (§1) General Procedure B: Photochemical Irradiation of Peptides and Proteins: To a 2 mL Pyrex LC/MS vial (Thermo model #03-391-39) were sequentially added solutions containing the desired biomolecule, glutathione (GSH), pyridinium salt, and ammonium acetate (NH4OAc). The resulting solution was diluted to a final volume of 500 μL and then sparged using nitrogen for a minimum of 30 minutes prior to irradiation. The actively sparging solution was then placed in an EvoluChem™ PhotoRedOx Box photoreactor that was equipped with a Kessil, PR160 427 nm LED Lamp and was then irradiated (100% lamp intensity) for the designated time at room temperature while maintaining active sparging. The resultant reaction mixture was then analyzed directly by LC/MS. Analysis of labeling outcomes using LC/MS was performed either by extracted ion chromatogram intensities (method A) or by integrating the area under the peaks associated with peptide content (method B). These values were totaled, and estimated percentages were assigned according to relative intensities of peaks or ion counts.
Labeling of Octreotide with Pyridinium Salt 2a (Octreotide-2a Conjugate). […] The resulting reaction mixture was directly analyzed by LC/MS using method A to have proceeded with 88% conversion with mono labeling. […]

The target of assay [2] is T1, bovine carbonic anhydrase II (29 kDa) (Bos taurus, UniProt P00921).
T1 construct: Carbonic Anhydrase Isozyme II from bovine erythrocytes; purchased Sigma Aldrich; host or cells: bovine erythrocytes
T1 sequence (P00921 whole entry): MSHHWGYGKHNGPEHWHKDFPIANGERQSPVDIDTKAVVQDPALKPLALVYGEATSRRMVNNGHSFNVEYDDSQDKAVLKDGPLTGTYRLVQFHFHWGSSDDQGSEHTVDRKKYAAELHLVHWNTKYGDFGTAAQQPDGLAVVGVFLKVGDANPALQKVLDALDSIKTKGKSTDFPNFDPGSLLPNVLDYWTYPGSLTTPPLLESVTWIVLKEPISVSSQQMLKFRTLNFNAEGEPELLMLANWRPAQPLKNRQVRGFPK
Kind of assay: Photochemical labeling of bovine carbonic anhydrase II (LC/MS, MS-MS). The assay is classed as biochemical. How it is done: as §1, with “Analysis of labeling outcomes using LC/MS was performed either by extracted ion chromatogram intensities (method A) or by integrating the area under the peaks associated with peptide content (method B). These values were totaled, and estimated percentages were assigned according to relative intensities of peaks or ion counts.” left out
Labeling of Bovine Carbonic Anhydrase II with Pyridinium Salt 2a (Bovine Carbonic Anhydrase II-2a Conjugate). […] The reaction mixture was directly analyzed by LC/MS using method A and was estimated to have proceeded with 34% conversion and a 4.5:1 mono:di labeled ratio. […]
General Trypsin Digest Protocol B: For non-cystine bridged labeled proteins, a standard trypsin digest was modified as follows. […] The digested mixture was analyzed directly by LC/MS and MS/MS using method C. […] The reduced product was analyzed by LC/MS-MS by selecting m/z=1108.4 for collision-induced dissociation (Collision energy=35 V). […]

For `COC(=O)N(C)[n+]1c(C)cc(-c2ccc3cc(OC)ccc3c2)cc1C` [Pyridinium salt 2a, 1-((methoxycarbonyl)(methyl)amino)-4-(6-methoxynapthalen-2-yl)-2,6-dimethylpyridin-1-ium tetrafluoroborate], the conversion in assay [1] (20 mM NH4OAc pH 6.9, glutathione, 427 nm LED) is 88% and 93%. Moreover, in assay [1] (427 nm), the degree of labeling result is “mono labeling”. In addition, the glutathionylation result in assay [2] (10 μM carbonic anhydrase II, 200 μM pyridinium salt, 300 μM glutathione, 60 minutes) is “No glutathionylation was observed”. Besides, the “identifiable site of modification” value in assay [2] (digestion/MS-MS) was “Trp-243”.
